Assay results reported in ChEMBL document CHEMBL2086249, “Use of small-molecule crystal structures to address solubility in a novel series of G protein coupled receptor 119 agonists: optimization of a lead and in vivo evaluation” (J Med Chem, 2012).

Tests used:
physchem = details: pH 7.4
[1] = Intrinsic clearance in human liver microsomes; type: ADME, Microsome; details: read-out: CLH

| SMILES | logD (physchem; octanol/phosphate buffer) | microsomal CLint [1] | logD (physchem; octanol/water) |
| --- | --- | --- | --- |
| CC(C)(C)OC(=O)N1CCN(c2ncc(-c3ccc(OCC#N)cc3)cn2)CC1 | 4.2 | 259 µL/min/mg | – |
| C[C@@H]1CN(c2nc(C(F)(F)F)no2)CCN1c1ncc(OCc2ccncc2C#N)cn1 | – | – | 3.1 |
| CC(C)(C)OC(=O)N1CCN(c2ccc(OCc3ccc(S(C)(=O)=O)cc3)cc2)CC1 | – | – | 3.9 |
| C[C@@H]1CN(C(=O)OC(C)(C)C)CCN1c1ncc(OCC2CCN(S(C)(=O)=O)CC2)cn1 | 3.5 | – | – |
| C[C@H]1CN(C(=O)OC(C)(C)C)CCN1c1ncc(OCc2ccc(S(C)(=O)=O)cc2)cn1 | 3.5 | – | – |
| CC(C)(C)OC(=O)N1C[C@@H]2C[C@H]1CN2c1ncc(OCc2ccc(S(C)(=O)=O)cc2)cn1 | 2.8 | – | – |
| CC(C)(C)OC(=O)N1CCC(c2ncc(OCc3ccc(S(C)(=O)=O)cc3)cn2)CC1 | – | – | 2.8 |
| C[C@@H]1CN(C(=O)OC(C)(C)C)CCN1c1ncc(OCc2ccc(-n3cnnn3)cc2)cn1 | > 4.3 | – | – |
| CC(C)(C)OC(=O)N1C[C@@H]2CC[C@H]1CN2c1ncc(OCc2ccc(S(C)(=O)=O)cc2)cn1 | 3.4 | – | – |
| C[C@@H]1CN(c2ncc(F)cn2)CCN1c1ncc(OCc2ccncc2C#N)cn1 | 3.4 | – | – |
| C[C@@H]1CN(C(=O)OC(C)(C)C)C[C@H](C)N1c1ncc(OCc2ccc(S(C)(=O)=O)cc2)cn1 | > 3.6 | – | – |
| CC(C)(C)OC(=O)N1CCN(c2ccc(OCc3ccc(S(C)(=O)=O)cc3)cn2)CC1 | 3.2 | – | – |
| C[C@@H]1CN(c2nc(C3CC3)no2)CCN1c1ncc(OCc2ccncc2C#N)cn1 | 3.5 | – | – |
| CC(C)(C)OC(=O)N1CCN(c2ncc(OCc3ccncc3)cn2)CC1 | 3.4 | – | – |
| C[C@H]1CN(c2ncc(OCc3ccc(S(C)(=O)=O)cc3)cn2)CCN1C(=O)OC(C)(C)C | > 3.6 | – | – |
| Cc1cc(COc2cnc(N3CCN(C(=O)OC(C)(C)C)CC3)nc2)ccn1 | 3.7 | – | – |
| C[C@@H]1CN(c2noc(C(F)(F)F)n2)CCN1c1ncc(OCc2ccncc2C#N)cn1 | 4 | – | – |
| C[C@@H]1CN(c2ncc(OCc3ccc(S(C)(=O)=O)cc3)cn2)CCN1C(=O)OC(C)(C)C | > 3.7 | – | – |
| CC(C)(C)OC(=O)N1CCN(c2ncc(OCc3ccncc3C#N)cn2)CC1 | 2.8 | – | – |
